Experimental data published in patent publication US5001064A, “Phosphatidylinositol 4-kinase” (Washington University, priority 1988, dated 1991).
Several values for one entry are separate records, joined by “and”; a condition that tells them apart may be missing. Identical values can stand only once. Entries after “also recorded” stand apart in the source; their conditions may differ. Like-named read-outs stand apart in the source and are kept apart here.

Columns and labels:
PtdIns 4-kinase [1] = target: T1, PtdIns 4-kinase (Bos taurus, UniProt A6QLN5); experiment: PtdIns 4-kinase activity assay: kinetic parameters, specific activity, pH optimum; type: biochemical, bovine; conditions: for Km: assuming a molecular weight of 835.2 for PtdIns, read-out: apparent Km for PtdIns
T1 construct: It constitutes the major PtdIns 4-kinase activity of bovine uteri; from tissue; host or cells: bovine uterus (acetone powder, purified over ammonium sulfate, Mono Q, S-Sepharose, Mono Q, Mono P and hydroxylapatite)
T1 sequence (A6QLN5 1-479): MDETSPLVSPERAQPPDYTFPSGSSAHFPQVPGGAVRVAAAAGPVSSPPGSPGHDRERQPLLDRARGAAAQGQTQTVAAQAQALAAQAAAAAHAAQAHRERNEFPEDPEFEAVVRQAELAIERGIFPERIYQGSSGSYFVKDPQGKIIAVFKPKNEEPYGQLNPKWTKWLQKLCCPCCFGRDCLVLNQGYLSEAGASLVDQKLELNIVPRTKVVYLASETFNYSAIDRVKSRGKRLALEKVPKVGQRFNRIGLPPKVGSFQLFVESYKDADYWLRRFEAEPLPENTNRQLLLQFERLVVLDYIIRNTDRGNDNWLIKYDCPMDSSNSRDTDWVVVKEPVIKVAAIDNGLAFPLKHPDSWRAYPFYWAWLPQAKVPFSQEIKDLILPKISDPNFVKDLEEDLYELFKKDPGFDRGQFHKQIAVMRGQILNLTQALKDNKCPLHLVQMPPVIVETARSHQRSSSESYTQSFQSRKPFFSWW
Description: (§1) PtdIns 4-kinase activity was assayed in 60 μl at 30° C. in 20 mM BisTris-HCl (pH 7.0), 10 mM MgCl2, 1.0% Triton X-100, 0.25 mg/ml phosphatidylinositol, and 150 μM ATP (1.25 μCi[-^32 P]ATP), unless otherwise noted. The reaction was terminated by the addition of 12 μl of cold HCl, 120 μl of cold methanol, 150 μl of chloroform, and 40 μl of H2 O. The extracted samples were centrifuged at 12,000 × g for 1 min. and the aqueous layer removed and discarded. When needed, the organic phase was washed with 40 μl of cold methanol and 40 μl of cold 1.0 N HCl, centrifuged at 12,000 × g, and the aqueous layer was removed. The organic phase was then dried under vacuum in a Savant speed-vac, resuspended in 40 μl of chloroform/methanol (2:1), and chromatographed on potassium oxalate-impregnated Silica Gel 60 thin layer chromatography plates (TLC). The solvent system used consisted of chloroform/methanol/ammonium hydroxide/water (51:39.6:3:8.4). For two-dimensional thin layer chromatography, the preceding solvent system was used for the first dimension, and chloroform/methanol/acetic acid/water (50:39:1:10) was used for the second dimension. Standards were visualized by exposing the TLC plate to iodine vapor. The reaction product, phosphatidylinositol 4-phosphate, was visualized by autoradiography, and the corresponding area of the TLC plate was scraped and quantitated by Cherenkov counting. This assay was linear with respect to both protein concentration and time. For tests utilizing [^3 H]PtdIns, the corresponding areas of the TLC plates were scraped and the silica powder was suspended in a gel of Aquasol/H2 O (4:1) before counting. All assays (except column fractions) were done in duplicate or triplicate.
The purified PtdIns 4-kinase was used to determine the kinetic parameters of this enzyme for ATP and PtdIns. Optimal enzymatic activity was found at concentrations of ATP above 100 μM. […] In order to avoid potential effects on enzymatic activity due to changes in the Triton X-100/PtdIns micelles used as substrate, a constant molar ratio of Triton X-100 to PtdIns was used, and the concentration of Triton X-100 was maintained above its critical micellar concentration. […] The different Vmax values may be explained by the fact that the ATP substrate saturation curve was performed at a pH of 7.4 rather than 7.0.
In order to optimize the assay of this enzyme, the pH optimum for Ptdlns 4-kinase was determined. This enzyme was optimally active in the pH range of 6.0-7.0 (FIG. 4). Above a pH of 7.0 and below a pH of 6.0 the activity of this enzyme decreased sharply.

[2] = test system: PtdIns 4-kinase/PtdIns-4-P 5-kinase purified from bovine brain myelin; conditions: Saltiel et al., Biochem. J. 241, 759-763 (1987); cited from earlier work
PtdIns 4-kinase [3] = target: T1, PtdIns 4-kinase; experiment: Specificity of PtdIns 4-kinase for a nucleotide phosphoryl donor ([3H]PtdIns as substrate); type: biochemical, bovine
Description: as §1, with “This assay was linear with respect to both protein concentration and time.” left out

PtdIns 4-kinase [4] = target: T1, PtdIns 4-kinase; experiment: Influence of divalent cations (Mg2+, Ca2+) on PtdIns 4-kinase activity; type: biochemical, bovine
Description: as §1, with “The” for “PtdIns 4-kinase activity was assayed in 60 μl at 30° C. in 20 mM BisTris-HCl (pH 7.0), 10 mM MgCl2, 1.0% Triton X-100, 0.25 mg/ml phosphatidylinositol, and 150 μM ATP (1.25 μCi[-^32 P]ATP), unless otherwise noted. The”, “The solvent system used consisted of chloroform/methanol/ammonium hydroxide/water (51:39.6:3:8.4).” left out, “This assay was linear with respect to both protein concentration and time.” left out

[5] = nonlinear regression, Hill equation

phosphatidylinositol [PtdIns]
PtdIns concentration for saturation of enzyme activity (PtdIns 4-kinase [1]; FIG. 3B): above 0.2 mg/ml | Km (PtdIns 4-kinase [1]; listed as phosphatidylinositol (PtdIns)): ~26 µM | Km (PtdIns 4-kinase [1]): 26 µM and ~26 µM | Vmax, PtdIns concentration varied (PtdIns 4-kinase [1]; pH 7.0): 3.3 µmol/mg/min | apparent Km for PtdIns (PtdIns 4-kinase [1]; purified enzyme, pH 7.0 (Tris-HCl), constant Triton X-100/PtdIns ratio): 22 µg/mL | Km [2]: 400 µM

Nc1ncnc2c1ncn2[C@@H]1O[C@H](COP(=O)(O)OP(=O)(O)OP(=O)(O)O)[C@@H](O)[C@H]1O [ATP]
ATP concentration for optimal enzymatic activity (PtdIns 4-kinase [1]; FIG. 3A): above 100 μM | Vmax, ATP concentration varied (PtdIns 4-kinase [1]; pH 7.4): 2.2 µmol/mg/min | utilization as phosphoryl donor (words) (PtdIns 4-kinase [3]; [3H]PtdIns as substrate): utilized; also recorded: will utilize | activity at 150 µM (PtdIns 4-kinase [3]; read-out: Relative activity with nucleotide donor): 100%

[Ca+2] [Ca^2+]
IC50 (PtdIns 4-kinase [4]; 100 μM ATP, 100 μM EGTA, FIG. 6, read-out: free Ca2+ concentration giving 50% inhibition): ~300 µM

[Mg+2] [Mg^2+]
Hill coefficient of Mg2+ dependence (PtdIns 4-kinase [4]; [5]): 1.9 | Ks of Mg2+ dependence (PtdIns 4-kinase [4]; [5]): 0.36
